The source of these data is PMC4417197, “Engineering Saccharomyces pastorianus for the co-utilisation of xylose and cellulose from biomass” (Microbial Cell Factories, 2015).

The structures appear in SMILES notation.

Assay [1] addresses T1, XDH (xylitol dehydrogenase, xdh1) (Trichoderma reesei, UniProt Q876R2).
T1 construct: cell-free extract
T1 sequence (Q876R2 1-363): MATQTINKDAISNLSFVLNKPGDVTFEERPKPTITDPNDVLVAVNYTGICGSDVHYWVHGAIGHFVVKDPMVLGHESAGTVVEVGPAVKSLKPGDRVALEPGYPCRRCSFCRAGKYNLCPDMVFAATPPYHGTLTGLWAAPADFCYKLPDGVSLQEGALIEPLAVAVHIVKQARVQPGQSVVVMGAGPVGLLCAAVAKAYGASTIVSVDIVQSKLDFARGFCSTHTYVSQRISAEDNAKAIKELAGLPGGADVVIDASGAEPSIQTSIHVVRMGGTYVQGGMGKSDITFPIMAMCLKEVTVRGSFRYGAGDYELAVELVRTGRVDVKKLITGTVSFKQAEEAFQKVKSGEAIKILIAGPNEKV
Put plainly: NAD+ reduction at […] nm in cell-free extract of expressing yeast. The assay is classed as biochemical. As to conditions: 0.15 M xylitol, 0.4 mM NAD+, 25 mM potassium phosphate pH 7.0.

Assay [2] has as its target T2, XR (xylose reductase, xyl1) (Trichoderma reesei, UniProt Q876L8).
T2 construct: cell-free extract
T2 sequence (Q876L8 1-324): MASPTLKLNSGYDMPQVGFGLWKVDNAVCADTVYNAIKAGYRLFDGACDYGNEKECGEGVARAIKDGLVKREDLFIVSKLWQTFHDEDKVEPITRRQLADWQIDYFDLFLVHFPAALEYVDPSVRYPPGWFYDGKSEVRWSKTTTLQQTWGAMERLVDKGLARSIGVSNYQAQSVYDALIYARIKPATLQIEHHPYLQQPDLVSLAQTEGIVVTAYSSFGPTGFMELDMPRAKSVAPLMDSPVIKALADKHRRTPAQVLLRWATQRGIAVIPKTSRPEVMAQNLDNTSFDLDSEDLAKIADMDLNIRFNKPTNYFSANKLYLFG
Put plainly: NADPH oxidation at […] nm in cell-free extract of expressing yeast. The assay is classed as biochemical. As to conditions: 50 mM xylose, 0.34 mM NADPH, 25 mM potassium phosphate pH 7.0, 30 C.

In the case of `NC(=O)c1ccc[n+]([C@@H]2O[C@H](COP(=O)(O)OP(=O)(O)OC[C@H]3O[C@@H](n4cnc5c(N)ncnc54)[C@H](O)[C@@H]3O)[C@@H](O)[C@H]2O)c1` [NAD^+], the “NAD+ reduction at 340 nm in cell-free extract of expressing yeast” value in assay [1] is on record as “measuring the reduction of nicotinamide adenine dinucleotide (NAD^+) to NADH”.

On to `NC(=O)C1=CN([C@@H]2O[C@H](COP(=O)(O)OP(=O)(O)OC[C@H]3O[C@@H](n4cnc5c(N)ncnc54)[C@H](OP(=O)(O)O)[C@@H]3O)[C@@H](O)[C@H]2O)C=CC1` [NADPH], for which the “NADPH oxidation at 340 nm in cell-free extract of expressing yeast” value in assay [2] was “measuring the oxidation of the reduced form of nicotinamide adenine dinucleotide phosphate (NADPH)”.
